Laboratory results published in US7732424B2, “Purine derivatives and methods of use thereof” (Inotek Pharmaceuticals Corporation, priority 2005, dated 2010).
Read-outs that look alike come from different tables or passages of the source.

Legend:
[1] = target: T1, human recombinant A2A adenosine receptor (Homo sapiens, UniProt P29274); experiment: Adenosine A2A receptor binding, displacement of [^3H]NECA in transfected CHO cells
T1 construct: expressed in transfected cells
Description: (§1) Membranes for radioligand binding experiments were prepared from fresh or frozen cells as described in Klotz et al., Naunyn-Schmiedeberg's Arch. Pharmacol., 357:1-9 (1998). The cell suspension was then homogenized in ice-cold hypotonic buffer (5 mM Tris/HCl, 2 mM EDTA, pH 7.4) and the resultant homogenate was spun for 10 minutes (4° C.) at 1,000 g. The membranes were then sedimented from the supernatant for 30 minutes at 100,000 g and resuspended in 50 mM Tris/HCl buffer pH 7.4 (for A3 adenosine receptors: 50 mM Tris/HCl, 10 mM MgCl2, 1 mM EDTA, pH 8.25), frozen in liquid nitrogen at a protein concentration of 1-3 mg/mL and stored at −80° C.
(§2) Nonspecific binding was determined in the presence of 100 μM R-PIA and 1 mM theophylline, respectively. For details see Klotz et al., Naunyn-Schmiedeberg's Arch. Pharmacol., 357:1-9, 1998. All binding data were calculated by non-linear curve fitting using the program SCTFIT (De Lean et al., Mol. Pharm. 1982, 21:5-16).

[2] = tested on: New Zealand white rabbits; experiment: Effect on intraocular pressure (IOP) in rabbits; type: in vivo, rabbit
Description: The effect of an illustrative Purine Derivative on intraocular pressure (IOP) was examined in New Zealand white rabbits. New Zealand white rabbits undergo a circadian change in intraocular pressure, such that lowest pressure values occur in the early morning and peak pressure values occur in the afternoon. […] Consistency of measurements is indicated by the fact the intraocular pressure at t=−23 hours and t=25 hours is essentially the same (see FIGS. 1-5).
One rabbit was administered with each each dose level. […] Thus, Compound I′-1 was administered when the level of intraocular pressure was low relative to other timepoints during the day and night.

[3] = target: human recombinant A1 adenosine receptor (Homo sapiens, UniProt P30542); experiment: Adenosine A1 receptor binding, displacement of [^3H]CCPA in transfected CHO cells
Chain of human recombinant A1 adenosine receptor (P30542 whole entry): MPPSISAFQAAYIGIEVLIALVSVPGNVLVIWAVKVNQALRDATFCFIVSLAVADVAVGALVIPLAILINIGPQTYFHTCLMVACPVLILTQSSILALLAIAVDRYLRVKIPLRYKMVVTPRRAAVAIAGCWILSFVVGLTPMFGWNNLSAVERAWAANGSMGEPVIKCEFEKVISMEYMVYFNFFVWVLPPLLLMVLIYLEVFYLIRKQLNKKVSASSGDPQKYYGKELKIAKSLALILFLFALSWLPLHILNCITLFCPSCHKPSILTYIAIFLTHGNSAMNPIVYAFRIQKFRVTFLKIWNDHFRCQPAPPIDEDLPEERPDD
Description: as §1, §2

[4] = target: T2, human recombinant A3 adenosine receptor (Homo sapiens, UniProt P0DMS8); experiment: Adenosine A3 receptor binding, displacement of [^3H]NECA in transfected HEK cells; settings: displacement of specific [^3H]NECA binding, geometric mean
T2 construct: expressed in transfected cells
T2 sequence (P0DMS8 1-318): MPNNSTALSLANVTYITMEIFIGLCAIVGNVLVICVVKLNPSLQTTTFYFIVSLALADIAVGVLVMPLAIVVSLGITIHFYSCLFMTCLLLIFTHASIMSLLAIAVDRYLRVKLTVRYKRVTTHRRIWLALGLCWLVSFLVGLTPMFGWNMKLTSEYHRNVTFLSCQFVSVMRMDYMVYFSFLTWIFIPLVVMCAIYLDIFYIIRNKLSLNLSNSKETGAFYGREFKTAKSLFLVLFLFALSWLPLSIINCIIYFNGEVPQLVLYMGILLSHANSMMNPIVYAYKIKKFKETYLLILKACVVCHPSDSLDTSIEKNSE
Description: as §1, §2

male Sprague-Dawley rats = experiment: Effect on core body temperature in rats; type: in vivo; set-up: Rectal Temperature: unit not given here; settings: for Behavior / Rectal Temperature / Respiratory Rate / Respiration Rate: rat at 13° C., 15 mg/kg JV then 20 mg/mL at 1 mL/h
Description: Their rectal temperature, respiratory rate, and behavior were recorded following 5 min, 10 min, 20 min, 30 min, 1 h, 1.5 h, 2 h, 2.5 h, 3 h, 3.5 h, and 4 h.

T1 sequence (P29274 whole entry): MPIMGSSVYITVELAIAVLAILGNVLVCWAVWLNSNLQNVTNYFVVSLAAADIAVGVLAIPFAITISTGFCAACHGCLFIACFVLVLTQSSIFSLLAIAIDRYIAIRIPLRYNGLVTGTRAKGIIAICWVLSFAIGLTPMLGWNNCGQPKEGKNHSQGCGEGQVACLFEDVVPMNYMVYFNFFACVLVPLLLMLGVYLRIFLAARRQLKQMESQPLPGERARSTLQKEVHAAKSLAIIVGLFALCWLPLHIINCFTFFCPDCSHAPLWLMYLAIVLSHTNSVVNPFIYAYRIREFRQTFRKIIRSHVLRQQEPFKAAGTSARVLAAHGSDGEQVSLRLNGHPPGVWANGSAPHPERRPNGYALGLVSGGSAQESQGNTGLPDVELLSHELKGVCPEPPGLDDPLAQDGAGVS

OC[C@H]1O[C@@H](n2cnc3c(NC4CCCC4)nc(Cl)nc32)[C@H](O)[C@@H]1O [[^3H]CCPA, 2-chloro-N^6-[^3H]cyclopentyladenosine, reference compound] gave a Ki ([1]; displacement of specific [^3H]NECA binding, CHO cells, geometric mean, read-out: Ki(A2A)) of 2.27 µM.
With OC[C@H]1O[C@@H](n2cnc3c(NC4(CO)CCCC4)ncnc32)[C@H](O)[C@@H]1O [I′-1] the Ki [1] was 28.1 µM, the “Effect on intraocular pressure (conclusion)” value ([2]; FIGS. 1-5) was “reduces an animal's intraocular pressure” and the “Time of recovery of intraocular pressure values to normal levels” value ([2]; administered concentration 0.3 mg/mL (FIG. 1)) was roughly 6 h. The “Time of recovery of intraocular pressure values to normal levels” value ([2]; administered concentration 30 mg/mL (FIG. 5)) was greater than 7 h, the “Intraocular pressure course after administration” value ([2]; one drop to one eye at t=0 hours, FIGS. 1-5) was “the intraocular pressure did not increase to the normal day values” and the Eye irritation ([2]; topical ocular, 0.3-30.0 mg/mL) was “No eye irritation was observed in any animal”. For the same molecule, the Ki [3] was 6.77 nM, the Ki [4] was 7.7 µM and the Behavior (male Sprague-Dawley rats; Animal #1, 0 min) was “normal”. For the same molecule, the “Rectal Temperature” value (male Sprague-Dawley rats; Animal #1, 0 min) was 38, the “Respiratory Rate” value (male Sprague-Dawley rats; Animal #1, 0 min) was 210 min⁻¹ and the Behavior (male Sprague-Dawley rats; Animal #1, 5 min) was “sleep/”. For the same molecule, the “Rectal Temperature” value (male Sprague-Dawley rats; Animal #1, 5 min) was 38, the Behavior (male Sprague-Dawley rats; Animal #1, 10 min) was “sleep/” and the “Rectal Temperature” value (male Sprague-Dawley rats; Animal #1, 10 min) was 37. For the same molecule, the “Respiratory Rate” value (male Sprague-Dawley rats; Animal #1, 10 min) was 69 min⁻¹, the Behavior (male Sprague-Dawley rats; Animal #1, 20 min) was “sleep” and the “Rectal Temperature” value (male Sprague-Dawley rats; Animal #1, 20 min) was 36. For the same molecule, the “Respiratory Rate” value (male Sprague-Dawley rats; Animal #1, 20 min) was 66 min⁻¹, the Behavior (male Sprague-Dawley rats; Animal #1, 30 min) was “sleep” and the “Rectal Temperature” value (male Sprague-Dawley rats; Animal #1, 30 min) was 36. The “Respiratory Rate” value (male Sprague-Dawley rats; Animal #1, 30 min) was 75 min⁻¹, the Behavior (male Sprague-Dawley rats; Animal #1, 1 h) was “sleep” and the “Rectal Temperature” value (male Sprague-Dawley rats; Animal #1, 1 h) was 32. The “Respiration Rate” value (male Sprague-Dawley rats; Animal #1, 1 h) was 42 min⁻¹, the Behavior (male Sprague-Dawley rats; Animal #1, 1.5 h) was “sleep” and the “Rectal Temperature” value (male Sprague-Dawley rats; Animal #1, 1.5 h) was 29. The “Respiration Rate” value (male Sprague-Dawley rats; Animal #1, 1.5 h) was 45 min⁻¹, the Behavior (male Sprague-Dawley rats; Animal #1, 2 h) was “sleep” and the “Rectal Temperature” value (male Sprague-Dawley rats; Animal #1, 2 h) was 27. For the same molecule, the “Respiration Rate” value (male Sprague-Dawley rats; Animal #1, 2 h) was 54 min⁻¹, the Behavior (male Sprague-Dawley rats; Animal #1, 2.5 h) was “sleep” and the “Rectal Temperature” value (male Sprague-Dawley rats; Animal #1, 2.5 h) was 25. For the same molecule, the “Respiration Rate” value (male Sprague-Dawley rats; Animal #1, 2.5 h) was 51 min⁻¹, the Behavior (male Sprague-Dawley rats; Animal #1, 3 h) was “sleep” and the “Rectal Temperature” value (male Sprague-Dawley rats; Animal #1, 3 h) was 24. The “Respiration Rate” value (male Sprague-Dawley rats; Animal #1, 3 h) was 42 min⁻¹, the Behavior (male Sprague-Dawley rats; Animal #1, 3.5 h) was “sleep” and the “Rectal Temperature” value (male Sprague-Dawley rats; Animal #1, 3.5 h) was 23. For the same molecule, the “Respiration Rate” value (male Sprague-Dawley rats; Animal #1, 3.5 h) was 42 min⁻¹, the Behavior (male Sprague-Dawley rats; Animal #1, 4 h) was “sleep” and the “Rectal Temperature” value (male Sprague-Dawley rats; Animal #1, 4 h) was 21. For the same molecule, the “Respiration Rate” value (male Sprague-Dawley rats; Animal #1, 4 h) was 42 min⁻¹, the Behavior (male Sprague-Dawley rats; Animal #2, 0 min) was “normal” and the “Rectal Temperature” value (male Sprague-Dawley rats; Animal #2, 0 min) was 39. For the same molecule, the “Respiratory Rate” value (male Sprague-Dawley rats; Animal #2, 0 min) was 220 min⁻¹, the Behavior (male Sprague-Dawley rats; Animal #2, 5 min) was “normal” and the “Rectal Temperature” value (male Sprague-Dawley rats; Animal #2, 5 min) was 39. For the same molecule, the “Respiratory Rate” value (male Sprague-Dawley rats; Animal #2, 5 min) was 99 min⁻¹, the Behavior (male Sprague-Dawley rats; Animal #2, 10 min) was “sleep/” and the “Rectal Temperature” value (male Sprague-Dawley rats; Animal #2, 10 min) was 38. For the same molecule, the “Respiratory Rate” value (male Sprague-Dawley rats; Animal #2, 10 min) was 84 min⁻¹, the Behavior (male Sprague-Dawley rats; Animal #2, 20 min) was “sleep/” and the “Rectal Temperature” value (male Sprague-Dawley rats; Animal #2, 20 min) was 37. The “Respiratory Rate” value (male Sprague-Dawley rats; Animal #2, 20 min) was 57 min⁻¹, the Behavior (male Sprague-Dawley rats; Animal #2, 30 min) was “sleep/” and the “Rectal Temperature” value (male Sprague-Dawley rats; Animal #2, 30 min) was 37. For the same molecule, the “Respiratory Rate” value (male Sprague-Dawley rats; Animal #2, 30 min) was 51 min⁻¹, the Behavior (male Sprague-Dawley rats; Animal #2, 1 h) was “sleep” and the “Rectal Temperature” value (male Sprague-Dawley rats; Animal #2, 1 h) was 33. For the same molecule, the “Respiration Rate” value (male Sprague-Dawley rats; Animal #2, 1 h) was 36 min⁻¹, the Behavior (male Sprague-Dawley rats; Animal #2, 1.5 h) was “sleep” and the “Rectal Temperature” value (male Sprague-Dawley rats; Animal #2, 1.5 h) was 30. For the same molecule, the “Respiration Rate” value (male Sprague-Dawley rats; Animal #2, 1.5 h) was 36 min⁻¹, the Behavior (male Sprague-Dawley rats; Animal #2, 2 h) was “sleep” and the “Rectal Temperature” value (male Sprague-Dawley rats; Animal #2, 2 h) was 28. The “Respiration Rate” value (male Sprague-Dawley rats; Animal #2, 2 h) was 36 min⁻¹, the Behavior (male Sprague-Dawley rats; Animal #2, 2.5 h) was “sleep” and the “Rectal Temperature” value (male Sprague-Dawley rats; Animal #2, 2.5 h) was 27. For the same molecule, the “Respiration Rate” value (male Sprague-Dawley rats; Animal #2, 2.5 h) was 30 min⁻¹, the Behavior (male Sprague-Dawley rats; Animal #2, 3 h) was “sleep” and the “Rectal Temperature” value (male Sprague-Dawley rats; Animal #2, 3 h) was 26. For the same molecule, the “Respiration Rate” value (male Sprague-Dawley rats; Animal #2, 3 h) was 27 min⁻¹, the Behavior (male Sprague-Dawley rats; Animal #2, 3.5 h) was “sleep” and the “Rectal Temperature” value (male Sprague-Dawley rats; Animal #2, 3.5 h) was 25. For the same molecule, the “Respiration Rate” value (male Sprague-Dawley rats; Animal #2, 3.5 h) was 24 min⁻¹, the Behavior (male Sprague-Dawley rats; Animal #2, 4 h) was “sleep” and the “Rectal Temperature” value (male Sprague-Dawley rats; Animal #2, 4 h) was 25. For the same molecule, the “Respiration Rate” value (male Sprague-Dawley rats; Animal #2, 4 h) was 27 min⁻¹, the “Effect on core body temperature (conclusion)” value (male Sprague-Dawley rats; rats, Tables 3A and 3B) was “reduces an animal's core body temperature” and the “Survival of the animals” value (male Sprague-Dawley rats; two rats, 15 mg/kg JV then 20 mg/mL at 1 mL/h for 4 hours) was “Both animals survived the experiment”.
Work on OC[C@H]1O[C@@H](n2cnc3c(NC4(CO)CCCC4)nc(Cl)nc32)[C@H](O)[C@@H]1O [I′-19] yielded a Ki [1] of 24 µM, a Ki [3] of 6.47 nM and a Ki [4] of 5.96 µM.
